Assay results from patent publication US20050245399A1, “Pyrazole derivatives as herbicidal compositions containing them” (ISHIHARA SANGYO KAISHA, LTD., priority 2004, published 2005).

Tests used:
[1] = system: green foxtail (Setaria viridis L.): SETVI; experiment: Test Example 1 pre-emergence herbicidal activity, SETVI; format: in vivo; conditions: Rate 63 g a.i./ha, visually observed 20th to 23rd day after application
Outline: (§1)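 Plants were sown in pots of upland field soil and treated the following day, before emergence, with the formulated compound sprayed in 500 L/ha water. Herbicidal effect was judged by eye 20–23 days later on a 0–100% scale.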

[2] = system: wheat (Triticum aestivum L.): TRZAX; experiment: Test Example 1 pre-emergence herbicidal activity, TRZAX; format: in vivo; conditions: Rate 63 g a.i./ha, visually observed 20th to 23rd day after application
Outline: as §1

[3] = system: prickly sida (Sida spinosa L.): SEDSP; experiment: Test Example 1 pre-emergence herbicidal activity, SIDSP; format: in vivo; conditions: Rate 63 g a.i./ha, visually observed 20th to 23rd day after application
Outline: as §1

[4] = system: velvetleaf (Abutilon theophrasti), ABUTH; experiment: Test Example 2 post-emergence (foliage treatment) herbicidal activity, ABUTH; format: in vivo; conditions: 63 g a.i./ha
Outline: (§2)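 Foliar spray of formulated compound (500 L/ha dilution water, 0.1% v/v spreader) onto young potted plants at defined leaf stages. Scored 0-100% by visual inspection 20-23 d post-spray.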

[5] = system: corn (Zea mays L.): ZEAMX; experiment: Test Example 1 pre-emergence herbicidal activity, ZEAMX; format: in vivo; conditions: Rate 63 g a.i./ha, visually observed 20th to 23rd day after application
Outline: as §1

[6] = system: rice (Oryza sativa L.), ORYSA; experiment: Test Example 2 post-emergence (foliage treatment) herbicidal activity, ORYSA; format: in vivo; conditions: 63 g a.i./ha
Outline: (§3)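 Seeds are sown in upland soil in pots, and seedlings are sprayed once they reach set leaf stages (pigweed 0.1-1.5, barnyardgrass 1.1-2.1, crabgrass 1.0-2.0, rice 1.0-2). The formulated compound goes on in 500 L/ha water containing 0.1% (v/v) spreader. Effect is judged by eye 20-23 days on, as percent control.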

[7] = system: soybean (Glycine max Merr.): GLXMA; experiment: Test Example 1 pre-emergence herbicidal activity, GLXMA; format: in vivo; conditions: Rate 63 g a.i./ha, visually observed 20th to 23rd day after application
Outline: as §1

[8] = system: japanese bulrush (Scirpus juncoides: SCPJO); experiment: Test Example 3 water application herbicidal activity (paddy), SCPJO; format: in vivo; conditions: 63 g a.i./ha, water application under submerged condition at 0.5 leaf stage, visually observed 14th day after application; 0 = untreated control, 100 = complete kill
Outline: (§4)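 Flooded paddy-soil pots in greenhouse; ECHOR and SCPJO sown, SAGPY tubers planted a day later, compound applied into 3–4 cm water at weeds' 0.5-leaf stage. Rice transplanted at 2-leaf stage, treated day 4 after transplanting. Visual growth control 0–100% at 14 days (weeds) and 21 days (rice) after application.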

[9] = system: green foxtail (Setaria viridis L.), SETVI; experiment: Test Example 2 post-emergence (foliage treatment) herbicidal activity, SETVI; format: in vivo; conditions: 63 g a.i./ha
Outline: as §2

[10] = system: barnyardgrass (Echinochloa crus-galli L.), ECHCG; experiment: Test Example 2 post-emergence (foliage treatment) herbicidal activity, ECHCG; format: in vivo; conditions: 63 g a.i./ha
Outline: as §3

[11] = system: crabgrass (Digitaria sanguinalis L.), DIGSA; experiment: Test Example 2 post-emergence (foliage treatment) herbicidal activity, DIGSA; format: in vivo; conditions: 63 g a.i./ha
Outline: as §3

[12] = system: soybean (Glycine max Merr.), GLXMA; experiment: Test Example 2 post-emergence (foliage treatment) herbicidal activity, GLXMA; format: in vivo; conditions: 63 g a.i./ha
Outline: as §2

[13] = system: prickly sida (Sida spinosa L.), SIDSP; experiment: Test Example 2 post-emergence (foliage treatment) herbicidal activity, SIDSP; format: in vivo; conditions: 63 g a.i./ha
Outline: as §2

[14] = system: redroot pigweed (Amaranthus retroflexus L.): AMARE; experiment: Test Example 1 pre-emergence herbicidal activity, AMARE; format: in vivo; conditions: Rate 63 g a.i./ha, visually observed 20th to 23rd day after application
Outline: as §1

[15] = system: redroot pigweed (Amaranthus retroflexus L.), AMARE; experiment: Test Example 2 post-emergence (foliage treatment) herbicidal activity, AMARE; format: in vivo; conditions: 63 g a.i./ha
Outline: as §3

[16] = system: barnyardgrass (Echinochloa crus-galli L.): ECHCG; experiment: Test Example 1 pre-emergence herbicidal activity, ECHCG; format: in vivo; conditions: Rate 63 g a.i./ha, visually observed 20th to 23rd day after application
Outline: as §1

[17] = system: wheat (Triticum aestivum L.), TRZAX; experiment: Test Example 2 post-emergence (foliage treatment) herbicidal activity, TRZAX; format: in vivo; conditions: 63 g a.i./ha
Outline: as §2

[18] = system: barnyardgrass (Echinochiloa oryzicola: ECHOR); experiment: Test Example 3 water application herbicidal activity (paddy), ECHOR; format: in vivo; conditions: 63 g a.i./ha, water application under submerged condition at 0.5 leaf stage, visually observed 14th day after application; 0 = untreated control, 100 = complete kill
Outline: as §4

[19] = system: japanese ribbon wapato (Sagittaria pygmaea: SA GPY); experiment: Test Example 3 water application herbicidal activity (paddy), SAGPY; format: in vivo; conditions: 63 g a.i./ha, water application under submerged condition, tubers planted, visually observed 14th day after application; 0 = untreated control, 100 = complete kill
Outline: as §4

[20] = system: velvetleaf (Abutilon theophrasti): ABUTH; experiment: Test Example 1 pre-emergence herbicidal activity, ABUTH; format: in vivo; conditions: Rate 63 g a.i./ha, visually observed 20th to 23rd day after application
Outline: as §1

[21] = system: crabgrass (Digitaria sanguinalis L.): DIGSA; experiment: Test Example 1 pre-emergence herbicidal activity, DIGSA; format: in vivo; conditions: Rate 63 g a.i./ha, visually observed 20th to 23rd day after application
Outline: as §1

[22] = system: corn (Zea mays L.), ZEAMX; experiment: Test Example 2 post-emergence (foliage treatment) herbicidal activity, ZEAMX; format: in vivo; conditions: 63 g a.i./ha
Outline: as §2

[23] = system: rice (Oryza sativa L.): ORYSA; experiment: Test Example 1 pre-emergence herbicidal activity, ORYSA; format: in vivo; conditions: Rate 63 g a.i./ha, visually observed 20th to 23rd day after application
Outline: as §1

[24] = system: rice (Oryza sativa L.: ORYSA); experiment: Test Example 3 water application herbicidal activity (paddy), transplanted rice ORYSA; format: in vivo; conditions: 63 g a.i./ha, water application 4th day after transplantation of 2 leaf stage rice, visually observed 21st day after application; 0 = untreated control, 100 = complete kill
Outline: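 Submerged application in flooded paddy soil (3–4 cm water); weeds treated at 0.5-leaf stage, transplanted rice 4 d after transplanting. Scored visually as % growth control: weeds at 14 d, rice at 21 d.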

| Structure (SMILES) | Pre-emergence Herbicidal Activity SETVI (growth controlling degree) [1] [%] | Pre-emergence Herbicidal Activity TRZAX (growth controlling degree) [2] [%] | Pre-emergence Herbicidal Activity SIDSP (growth controlling degree) [3] [%] | growth controlling degree, ABUTH [4] [%] | Pre-emergence Herbicidal Activity ZEAMX (growth controlling degree) [5] [%] | growth controlling degree, ORYSA [6] [%] | Pre-emergence Herbicidal Activity GLXMA (growth controlling degree) [7] [%] | growth controlling degree, SETVI [9] [%] | growth controlling degree, ECHCO [10] [%] | growth controlling degree, DIGSP [11] [%] | growth controlling degree, GLXMA [12] [%] | growth controlling degree, SIDSP [13] [%] | Pre-emergence Herbicidal Activity AMARE (growth controlling degree) [14] [%] | growth controlling degree, AMARE [15] [%] | Pre-emergence Herbicidal Activity ECHCG (growth controlling degree) [16] [%] | growth controlling degree, TRZAX [17] [%] | Pre-emergence Herbicidal Activity ABUTH (growth controlling degree) [20] [%] | Pre-emergence Herbicidal Activity DIGSP (growth controlling degree) [21] [%] | growth controlling degree, ZEAMX [22] [%] | Pre-emergence Herbicidal Activity ORYSA (growth controlling degree) [23] [%] | other results |
| --- | --- | --- | --- | --- | --- | --- | --- | --- | --- | --- | --- | --- | --- | --- | --- | --- | --- | --- | --- | --- | --- |
| COc1c(Cl)cc(F)c(-c2nn(C)c(OC(F)F)c2Cl)c1NC=O [Compound 1-4, [3-chloro-6-[4-chloro-5-(difluoromethoxy)-1-methyl-1H-pyrazol-3-yl]-5-fluoro-2-methoxyphenyl]-formamide] | 100 | 40 | 100 | 100 | 40 | 50 | 40 | 100 | 100 | 100 | 80 | 100 | 100 | 100 | 95 | 50 | 100 | 100 | 80 | 80 | growth controlling degrees (%) SCPJO [8]: 100%; melting point: 100 to 103 °C; growth controlling degrees (%) ECHOR [18]: 100%; growth controlling degrees (%) SAGPY [19]: 98%; growth controlling degrees (%) ORYSA [24]: 70% |
| COc1c(Cl)cc(F)c(-c2nn(C)c(OC(F)F)c2Cl)c1NC(=O)OCc1ccccn1 [Compound 1-69, [3-chloro-6-[4-chloro-5-(difluoromethoxy)-1-methyl-1H-pyrazol-3-yl]-5-fluoro-2-methoxyphenyl]-carbamic acid, 2-pyridinylmethyl ester] | 100 | 0 | 100 | 100 | 10 | 95 | 10 | 100 | 100 | 70 | 95 | 100 | 100 | 100 | 80 | 50 | 100 | 100 | 95 | 10 | melting point: 35 to 37 °C |
| COc1c(Cl)cc(F)c(-c2nn(C)c(OC(F)F)c2Cl)c1NC(=O)OCc1ccccc1Cl [Compound 1-63] | 30 | 10 | 20 | 100 | 0 | 60 | 0 | 100 | 100 | 90 | 60 | 100 | 100 | 100 | 30 | 40 | 30 | 40 | 70 | 0 | growth controlling degrees (%) SCPJO [8]: 70%; growth controlling degrees (%) ECHOR [18]: 100%; growth controlling degrees (%) SAGPY [19]: 70%; growth controlling degrees (%) ORYSA [24]: 40% |
| COc1c(Cl)cc(F)c(-c2nn(C)c(OC(F)F)c2Cl)c1NC(=O)c1ccccc1C [Compound 1-24] | 100 | 20 | 100 | 100 | 10 | 98 | 10 | 100 | 100 | 98 | 100 | 100 | 100 | 100 | 95 | 50 | 100 | 100 | 90 | 60 | growth controlling degrees (%) SCPJO [8]: 80%; growth controlling degrees (%) ECHOR [18]: 100%; growth controlling degrees (%) SAGPY [19]: 90%; growth controlling degrees (%) ORYSA [24]: 60% |
| COc1c(Cl)cc(F)c(-c2nn(C)c(OC(F)F)c2Cl)c1NC(=O)CCOc1ccccc1 [Compound 1-34] | 70 | 0 | 70 | 100 | 0 | 40 | 0 | 100 | 70 | 70 | 70 | 100 | 100 | 100 | 0 | 30 | 30 | 60 | 50 | 0 | growth controlling degrees (%) SCPJO [8]: 50%; growth controlling degrees (%) ECHOR [18]: 100%; growth controlling degrees (%) SAGPY [19]: 80%; growth controlling degrees (%) ORYSA [24]: 30% |
